Source: patent publication US20090271892A1, “LYSOPHOSPHATIDIC ACID ACYLTRANSFERASE GENES AND USES THEREOF” (priority 2006, published 2009)
Positions count from the first letter of the chain named. Read-outs that look alike come from different tables or passages of the source.

Tests used:
[1] = biological target: Litchi sinensis LPAAT (LsLPAAT) (Litchi chinensis, UniProt A0A346D9Z1); experiment: Competitive LPAAT assay using C18:1-CoA and C19CA-CoA; type: biochemical
Method: (§1) The ^3H-oleoyl-lysophosphatidic acid (^3HLPA, ref. NET1100; 600 μM, 28 mCi mmol^−1) and ^14C-Oleoyl-CoA (^14CC18:1-CoA, ref. NET651A; 300 μM, 11 mCi mmol^−1) radio-labeled substrates were purchased from Perkin Elmer. Assays were carried out in a final volume of 300 μl and contained Tris/HCl (100 mM, pH7.5), Triton X-100 (0.01% w/v), BSA (1 mg/ml), ascorbic acid (10 mM), EDTA (2 mM), 100 μl LPA and 50 μl acyl-CoA. The reaction was started by the addition of 30 μl of microsomes, and conducted in a glass vial placed in a Eppendorf Thermomixer-compact apparatus (30° C., 350 rpm). The reaction was stopped after incubation (from 0 to 120 min) by addition of 720 μl of chloroform/methanol (1:1). To separate the phases, 280 μl of 1M KCl in 0.2 M H3PO4 were added and the whole mixture was vortexed for 10 s before centrifugation at 1300 g, 5 min at room temperature. The upper aqueous phase was discarded and 2×25 μl of the remaining organic phase was spotted on to silica gel 60 ÅF254 TLC plates (ref. 1.05715, Merck) and developed in chloroform/methanol/NH4OH/water (65:25:0.9:3). The phosphatidic acid spot was visualized by iodine revelation and collected for scintillation counting.
(§2) Radioactivity measurement was performed in 10 mL Ultimagold (ref. 6013329, Perkin Elmer) using a liquid scintillation analyzer (Tri-Carb 2100TR, Packard) for determination of ^3H and ^14C separately.
(§3) […] For all experimental conditions, data are derived from three experiments with 4 replicates each.
(§4) LPAAT selectivity for the two substrates is calculated as follows:
(§5) Selectivity for C18:1-CoA: S^C18:1-CoA=^14C/^3H
(§6) Selectivity for C19CA-CoA: S^C19:1CA-CoA=(^3H—^14C)/^3H
(§7) in which, ^3H and ^14C are the molar quantity of produced PA and the molar quantity of ^14C18:1 incorporated into this PA. These molar quantities are calculated from the corresponding ^3H and ^14C radioactivity levels measured in the phosphatidic acid spots scraped from TLC plates. Selectivity is expressed as the fraction of the specific fatty acid incorporated out of the total incorporated at the sn-2 position.

[2] = biological target: Brassica napus LPAAT (BnLPAAT) (Brassica napus, UniProt Q9XFW4); experiment: as above; type: biochemical
Method: as §1, §2, §3, §4, §5, §6, §7

[3] = LPAAT assay with C18:1-CoA as substrate (microsomes of transformed E. coli); type: biochemical; conditions: expressed in transformed E. coli mutant strains; FIG. 1
Method: The ^3H-oleoyl-lysophosphatidic acid (^3HLPA, ref. NET1100; 600 μM, 28 mCi mmol^−1) and ^14C-Oleoyl-CoA (^14CC18:1-CoA, ref. NET651A; 300 μM, 11 mCi mmol^−1) radio-labeled substrates were purchased from Perkin Elmer. Assays were carried out in a final volume of 300 μl and contained Tris/HCl (100 mM, pH7.5), Triton X-100 (0.01% w/v), BSA (1 mg/ml), ascorbic acid (10 mM), EDTA (2 mM), 100 μl LPA and 50 μl acyl-CoA. The reaction was started by the addition of 30 μl of microsomes, and conducted in a glass vial placed in a Eppendorf Thermomixer-compact apparatus (30° C., 350 rpm). The reaction was stopped after incubation (from 0 to 120 min) by addition of 720 μl of chloroform/methanol (1:1). […]
as §2
A first LPAAT assay was performed as described above in order to determine optimal LPAAT activity using ^14CC18:1-CoA as substrate: • Effect of incubation time was tested for 0, 1, 3, 5, 10, 30, 60 and 120 min with 50 μM ^14CC18:1-CoA at 30° C. • In order to determine LPAAT kinetic parameters, the effect of C18:1-CoA concentration was tested as described above. […] For all experimental conditions, the mean of 2 values is calculated. […]

[4] = substrate: CCCCCCCC/C=C\CCCCCCCC(=O)SCCNC(=O)CCNC(=O)[C@H](O)C(C)(C)COP(=O)(O)OP(=O)(O)OC[C@H]1O[C@@H](n2cnc3c(N)ncnc32)[C@H](O)[C@@H]1OP(=O)(O)O; experiment: LPAAT assay, kinetic parameters with C18:1-CoA, E. coli JC201 microsomes; type: biochemical, Brassica napus; conditions: other: C18:1-CoA 0-50 μM, 10 min, 30° C., pH7.5, N = 3, pH 7.5
Method: FIG. 1: Kinetics of phosphatidic acid synthesis using ^14C-C18:1-CoA on ^3H-LPA as substrates and Brassica napus (SEQ ID No 5) and Litchi microsomal (SEQ ID NO 1) LPAATs as enzymes. Duplicate measurements for one experiment are shown.
The following experiments were performed with the Escherichia coli JC201 mutant strain, which is temperature conditional in endogenous LPAAT activity and able to grow at 30° C. but not at 44° C. (genotype plsC, described in Coleman, 1990 J. Biol. Chem., 265 (28), 17215-21.). These bacteria were kept at −80° C. as 1 ml glycerol stocks. For E. coli JC201 transformation, one glycerol stock was diluted in 15 mL of Luria-Bertani (ref. L3022, Sigma) liquid medium and cultivated overnight at 30° C. Then, 1 mL was used to inoculate flasks containing 15 mL of fresh liquid LB medium. Optical density was measured at 600 nm and each flask was then cultivated for 6 hours at 30 and 44° C. respectively in order to check by optical density measurement that bacterial growth occurs at 30° C. but not at 44° C. One of the cultures obtained at 30° C. was then centrifuged at 4500 g/4° C. for 10 min. Supernatant was discarded and the pellet was kept on ice for 2 hours. The pellet was washed three time with 15 mL sterile distilled water and then twice with 15 mL distilled sterile water containing 10% (weight/volume) glycerol (centrifugation condition: 4500 g/4° C./10 min). […]

[5] = Competitive LPAAT assay using C18:1-CoA and C19CA-CoA; type: biochemical; conditions: for use of C19CA-CoA as substrate: competitive assays using C19CA-CoA and C18:1-CoA
Method: as §1, §2, §3, §4, §5, §6, §7

[6] = substrate: CCCCCCCC/C=C\CCCCCCCC(=O)SCCNC(=O)CCNC(=O)[C@H](O)C(C)(C)COP(=O)(O)OP(=O)(O)OC[C@H]1O[C@@H](n2cnc3c(N)ncnc32)[C@H](O)[C@@H]1OP(=O)(O)O; experiment: LPAAT assay, kinetic parameters with C18:1-CoA, E. coli JC201 microsomes; type: biochemical, Litchi sinensis; conditions: other: C18:1-CoA 0-50 μM, 10 min, 30° C., pH7.5, N = 5, pH 7.5
Method: The inventors have identified one putative Lysophosphatidic Acid-Acyl Transferase from Lychee (SEQ ID No 2). They also have obtained a mutated protein derived from this protein, which is depicted as SEQ ID No 1.
Plasmids pEW108 and 117 comprising genes coding for SEQ ID No 1 and SEQ ID No 2 respectively under the control of the araBAD promoter (Guzman, L-M. et al. (1995) J Bacteriology 177: 4121-4130) were prepared and used to transform and complement an E. coli strain. The araBAD promoter is induced by arabinose, repressed by glucose and is used in the art to express polynucleotides in a controlled manner.
The following experiments were performed with the Escherichia coli JC201 mutant strain, which is temperature conditional in endogenous LPAAT activity and able to grow at 30° C. but not at 44° C. (genotype plsC, described in Coleman, 1990 J. Biol. Chem., 265 (28), 17215-21.). These bacteria were kept at −80° C. as 1 ml glycerol stocks. For E. coli JC201 transformation, one glycerol stock was diluted in 15 mL of Luria-Bertani (ref. L3022, Sigma) liquid medium and cultivated overnight at 30° C. […] Optical density was measured at 600 nm and each flask was then cultivated for 6 hours at 30 and 44° C. respectively in order to check by optical density measurement that bacterial growth occurs at 30° C. but not at 44° C. […]

[7] = 50 μM C18:1-CoA, 25 μM C19CA, fraction of total incorporated at sn-2, read-out: Selectivity for C19CA-CoA in competition with C18:1-CoA
[8] = 50 μM C18:1-CoA, 50 μM C19CA, fraction of total incorporated at sn-2, read-out: Selectivity for C19CA-CoA in competition with C18:1-CoA
[9] = average over the concentrations, read-out: Average selectivity for C19CA-CoA in competition with C18:1-CoA

Sequence of Litchi sinensis LPAAT (LsLPAAT) (A0A346D9Z1 entry or part of it): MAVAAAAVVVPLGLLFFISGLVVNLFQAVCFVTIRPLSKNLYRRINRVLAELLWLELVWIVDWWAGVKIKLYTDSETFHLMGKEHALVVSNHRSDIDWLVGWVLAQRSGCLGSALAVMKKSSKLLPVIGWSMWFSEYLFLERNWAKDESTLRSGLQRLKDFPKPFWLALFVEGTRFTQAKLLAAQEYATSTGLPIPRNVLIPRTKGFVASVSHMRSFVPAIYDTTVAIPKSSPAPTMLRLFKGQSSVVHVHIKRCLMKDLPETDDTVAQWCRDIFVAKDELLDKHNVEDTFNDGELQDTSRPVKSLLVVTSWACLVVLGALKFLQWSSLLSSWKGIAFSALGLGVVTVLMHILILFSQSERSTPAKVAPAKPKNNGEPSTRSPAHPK

CCCCCCCCC1CC1CCCCCCCC(=O)SCCNC(=O)CCNC(=O)[C@H](O)C(C)(C)COP(=O)(O)OP(=O)(O)OC[C@H]1O[C@@H](n2cnc3c(N)ncnc32)[C@H](O)[C@@H]1OP(=O)(O)O (stereo partly drawn) [C19CA-CoA]
selectivity ratio ([1]; 25 μM C18:1-CoA, 10 μM C19CA, fraction of total incorporated at sn-2, read-out: Selectivity for C19CA-CoA in competition with C18:1-CoA): 0.15
selectivity ratio ([1]; 25 μM C18:1-CoA, 25 μM C19CA, fraction of total incorporated at sn-2, read-out: Selectivity for C19CA-CoA in competition with C18:1-CoA): 0.34
selectivity ratio [1, 7]: 0.28
selectivity ratio [1, 8]: 0.35
selectivity ratio [1, 9]: 0.377 ± 0.101
Fatty acids incorporated at the sn-2 position being 19:0CA ([1]; in competition with C18:1-CoA, even at low total concentrations of acyl-CoA): up to 35%
selectivity ratio [2, 7]: 0.01
selectivity ratio [2, 8]: 0.19
selectivity ratio [2, 9]: 0.054 ± 0.057

B1: Brassica napus LPAAT (BnLPAAT, RAT1), SEQ ID No 5 (Brassica napus) (protein)
chain: MAMAAAVIVPLGILFFISGLVVNLLQAVCYVLVRPLSKNTYRKINRVVAETLWLELVWIVDWWAGVKIQVFADDETFNRMGKEHALVVCNHRSDIDWLVGWILAQRSGCLGSALAVMKKSSKFLPVIGWSMWFSEYLFLERNWAKDESTLKSGLQRLNDFPRPFWLALFVEGTRFTEAKLKAAQEYAASSELPVPRNVLIPRTKGFVSAVSNMRSFVPAIYDMTVAIPKTSPPPTMLRLFKGQPSVVHVHIKCHSMKDLPESEDEIAQWCRDQFVTKDALLDKHIAADTFAGQKEQNIGRPIKSLAVVLSWACLLTLGAMKFLHWSNLFSSWKGIALSALGLGIITLCMQILIRSSQSERSTPAKVAPAKPKDNHQSGPSSQTEVEEKQK
esterification of 14C-C18:1-CoA on 3H-LPA (presence of PA in lipid fraction) [3]: fully functional
Km [4]: 10.6 ± 6.7 µM
Vmax [4]: 0.0056 µmol/min/mg
use of C19CA-CoA as substrate [5]: can use C19CA-CoA as substrate
selectivity for C19CA-CoA (in words) ([5]; very little incorporation of 19:0CA up to 50 μM): very low selectivity

B2: Litchi sinensis LPAAT (LsLPAAT, pEW117), SEQ ID No 2 (Litchi chinensis) (protein)
chain: MAVAAAAVVVPLGLLFFISGLVVNLFQAVCFVTIRPLSKNLYRRINRVLAELLWLELVWIVDWWAGVKIKLYTDSETFHLMGKEHALVVSNHRSDIDWLVGWVLAQRSGCLGSALAVMKKSSKLLPVIGWSMWFSEYLFLERNWAKDESTLRSGLQRLKDFPKPFWLALFVEGTRFTQAKLLAAQEYATSTGLPIPRNVLIPRTKGFVASVSHMRSFVPAIYDTTVAIPKSSPAPTMLRLFKGQSSVVHVHIKRCLMKDLPETDDTVAQWCRDIFVAKDELLDKHNVEDTFNDGELQDTSRPVKSLLVVTSWACLVVLGALKFLQWSSLLSSWKGIAFSALGLGVVTVLMHILILFSQSERSTPAKVAPAKPKNNGEPSTRSQDKQK
Km [6]: 3.6 ± 1.7 µM
Vmax [6]: 0.000115 µmol/min/mg

B3: LsLPAAT: L. sinensis LPAAT; clone not stated in Table 2, probably pEW108 / SEQ ID No 1 (protein)
chain: B2 chain with Q383P, D384A, K385H, Q386P
modifications: synthetic LPAAT derived from litchi
esterification of 14C-C18:1-CoA on 3H-LPA (presence of PA in lipid fraction) [3]: fully functional
use of C19CA-CoA as substrate [5]: can use C19CA-CoA as substrate
